Assay [1] addresses T1, M-Fae (MtFae1a produced in M. thermophila) (Thermothelomyces thermophilus, UniProt G2QND5).
T1 construct: gene Fae1a; mature (signal peptide, first 18 residues, removed); homologous over-production in M. thermophila C1; no tag stated; N-glycosylated at Asn117 and Asn179; calculated MW 29506 Da, 31 kDa on SDS-PAGE; homodimer only predicted
In words: continuous absorbance assay at […] nm, non-linear regression. The note with it: substrate inhibition constant; free enzyme, 100 mM sodium phosphate pH 7.0, 35 °C; 5% DMSO. It counts as biochemical.

Assay [2] deals with T2, P-Fae (MtFae1a produced in P. pastoris) (Thermothelomyces thermophilus, UniProt G2QND5).
T2 construct: gene Fae1a; mature (signal peptide, first 18 residues, removed); secreted from Pichia pastoris GS115 (vector pPNic706); no tag stated; N-glycosylated at Asn117 and Asn179 with larger glycans; calculated MW 29506 Da, 33 kDa on SDS-PAGE; homodimer only predicted
T2 sequence (G2QND5 19-291): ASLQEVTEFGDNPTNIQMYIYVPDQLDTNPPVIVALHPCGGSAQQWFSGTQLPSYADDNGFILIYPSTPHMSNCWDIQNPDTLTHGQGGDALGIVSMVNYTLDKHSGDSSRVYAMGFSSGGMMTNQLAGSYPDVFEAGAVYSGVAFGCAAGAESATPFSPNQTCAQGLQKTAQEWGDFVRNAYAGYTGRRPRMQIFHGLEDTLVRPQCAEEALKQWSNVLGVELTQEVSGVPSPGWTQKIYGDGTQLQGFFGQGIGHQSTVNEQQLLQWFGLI
The description is as above. Conditions: substrate inhibition constant; free enzyme, 100 mM sodium phosphate pH 7.0, 35 °C; 5% DMSO. It counts as biochemical.

T1 sequence (G2QND5 19-291): as above

On to `COC(=O)/C=C/c1ccc(O)cc1` [MpCA, methyl p-coumarate], for which the “Ksi” value in assay [1] is on record as 1.46 ± 0.29 mM; in assay [2] it was 1.84 ± 0.28 mM.

Values taken from PMC6691016, “Glycosylation influences activity, stability and immobilization of the feruloyl esterase 1a from Myceliophthora thermophila” (AMB Express, 2019).
